These results are taken from PMC10896221, “Elucidating the glycan-binding specificity and structure of Cucumis melo agglutinin, a new R-type lectin” (Beilstein Journal of Organic Chemistry, 2024).

Broadly, the Kd is the free concentration of one partner at which half of the binding sites on the other are occupied at equilibrium, for simple one-to-one binding. A word on the IC50: it is the concentration that inhibits the measured activity by half. Lower therefore signals greater potency.

In assay [1] the target is T1, Cucumis melo agglutinin (CMA1) (Cucumis melo, UniProt A0A1S4E5V9, L33V).
T1 construct: gene LOC107992255; CMA1-Nter, N-terminal domain (6–132 in mature protein)
T1 sequence (A0A1S4E5V9 entry or part of it L33V): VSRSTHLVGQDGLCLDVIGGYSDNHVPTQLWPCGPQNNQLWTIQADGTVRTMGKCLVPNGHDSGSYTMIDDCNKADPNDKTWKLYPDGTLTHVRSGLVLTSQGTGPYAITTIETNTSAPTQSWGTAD
The assay is described as follows: X-ray crystal structure ([…] Å) and ITC; thermal shift with full-length protein. The class given is binding.

Assay [2] deals with T2, Cucumis melo agglutinin (CMA1) (Cucumis melo, UniProt A0A1S4E5V9).
T2 construct: gene LOC107992255; full-length CMA1, both CBM13 domains; probably CHO-S expressed with C-terminal His6
T2 sequence (A0A1S4E5V9 entry or part of it): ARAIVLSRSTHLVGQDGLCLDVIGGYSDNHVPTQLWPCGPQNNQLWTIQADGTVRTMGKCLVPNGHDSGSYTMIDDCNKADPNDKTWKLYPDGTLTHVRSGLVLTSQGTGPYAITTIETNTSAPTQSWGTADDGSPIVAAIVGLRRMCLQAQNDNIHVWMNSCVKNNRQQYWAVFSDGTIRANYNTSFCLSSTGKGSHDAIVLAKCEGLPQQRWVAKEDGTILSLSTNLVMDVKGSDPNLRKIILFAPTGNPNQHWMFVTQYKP
The assay is described as follows: X-ray crystal structure ([…] Å); SPR competition on GalNAc chip. The class given is binding.

Consider `CC(=O)N[C@@H]1[C@@H](O)[C@@H](O)[C@@H](CO)O[C@H]1O` [GalNAc], for which the Kd in assay [1] turned out to be 940 µM.

`CC(=O)N[C@@H]1[C@@H](O)[C@H](O[C@@H]2O[C@H](CO)[C@H](O)[C@H](O)[C@H]2O)[C@@H](CO)O[C@@H]1O` [LacNAc, N-acetyllactosamine] had an IC50 in assay [2] of 1.4 µM.
